The text below walks through data of US11780834B2, “Solid forms of 3-((1R,3R)-1-(2,6-difluoro-4-((1-(3-fluoropropyl)azetidin-3-yl)amino)phenyl)-3-methyl-1,3,4,9-tetrahydro-2H-pyrido[3,4-b]indol-2-yl)-2,2-difluoropropan-1-ol and processes for preparing fused tricyclic compounds comprising a substituted phenyl or pyridinyl moiety, including methods …” (Hoffmann-La Roche Inc., priority 2018, dated 2023).

For series [1] the following is noted: in vivo.
Protocol: Patients were enrolled in a dose-escalation stage with enrollment in an expansion stage to follow. During the single-agent dose escalation, cohorts were evaluated at escalating dose levels to determine the MTD or maximum administered dose (MAD).
Continuous once daily dosing was commenced during the treatment period starting on Cycle 1 Day 1.
The nature of series [2]: In vitro metabolite identification. The class given is in vitro ADME.
Another series deals with T1, CYP2C9 (Homo sapiens, UniProt P11712).
T1 construct: from tissue; host or cells: human liver microsomes
Put plainly: CYP2C9 metabolism dependent inhibition. The class given is in vitro ADME.

Series [3] is described as follows: Pharmacokinetics after single IV administration. The settings on record: rats, dogs, monkeys. The class given is in vivo, and monkeys.
The subject of series [4] is xenograft models of ER-positive breast cancer.
The nature of series [5]: Oral bioavailability in rats and dogs. As to conditions: rat, dog, in vivo.

The half-life is the time needed for the level to fall by half in the phase considered. Usually bioavailability stands for the share of a dose that reaches the circulation, judged against a reference dose that is usually intravenous. Read a low bioavailability as poor availability.

Where a name gives a salt, the structure may show the parent alone.

T1 sequence (P11712 whole entry): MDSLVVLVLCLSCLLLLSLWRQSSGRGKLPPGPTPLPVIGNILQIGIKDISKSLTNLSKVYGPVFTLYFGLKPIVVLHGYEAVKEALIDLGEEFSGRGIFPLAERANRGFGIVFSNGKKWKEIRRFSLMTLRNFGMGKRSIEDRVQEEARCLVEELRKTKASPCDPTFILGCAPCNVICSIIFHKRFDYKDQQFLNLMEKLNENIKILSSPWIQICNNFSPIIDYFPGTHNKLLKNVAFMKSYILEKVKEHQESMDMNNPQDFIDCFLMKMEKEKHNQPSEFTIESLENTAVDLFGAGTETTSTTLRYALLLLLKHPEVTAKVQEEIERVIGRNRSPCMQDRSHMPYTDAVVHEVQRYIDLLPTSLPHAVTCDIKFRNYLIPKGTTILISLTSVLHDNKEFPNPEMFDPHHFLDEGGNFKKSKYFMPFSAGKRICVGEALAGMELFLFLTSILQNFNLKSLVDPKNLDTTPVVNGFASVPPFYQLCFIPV

As to `C[C@@H]1Cc2c([nH]c3ccccc23)[C@@H](c2c(F)cc(NC3CN(CCCF)C3)cc2F)N1CC(F)(F)CO` [Compound B, 3-((1R,3R)-1-(2,6-difluoro-4-((1-(3-fluoropropyl)azetidin-3-yl)amino)phenyl)-3-methyl-1,3,4,9-tetrahydro-2H-pyrido[3,4-b]indol-2-yl)-2,2-difluoropropan-1-ol tartrate], in series [1], the “Plasma exposure vs dose” value is “increased proportionally” and the “Steady state exposure vs dose” value is “higher than dose proportional”. Moreover, in series [2], the “Major in vitro metabolic pathway” value is on record as “UGT1A4-mediated glucuronidation”. The “Metabolism dependent inhibition of CYP2C9” value at CYP2C9 is listed as “weak”. In addition, the half-life in series [3] (rat, dog, monkey, in vivo, read-out: Terminal elimination half-life) was in the range of 7 to 24 h. In series [3], the Clearance result is “low to moderate” and the Volume of distribution result is listed as “large”. In addition, the “Tolerability of doses in xenograft models” value in series [4] (in vivo) is given as “well tolerated”. In addition, the Anti-tumor activity entry in series [4] (including patient-derived xenograft with ESR1 mutation (ER.Y537S)) is given as “dose-dependent anti-tumor activity”. Further, in series [4] (vs GDC-0927), the “Fold lower dose giving same in vivo efficacy as GDC-0927” value was determined as 100 ×. The compound further gave an Efficacious dose range in series [4] (xenograft models) of 0.1 to 10 mg/kg/day. Further, the bioavailability in series [5] lay within 41 to 55%.
